In PubChem BioAssay (NCI):
Several values for one entry are separate records, joined by “and”; a condition that tells them apart may be missing. Identical values can stand only once.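 Step 1: Grow cells in 96-well plates. Step 2: Expose to compound for 48 hours at 5 concentrations. Step 3: Interpolate endpoints linearly; if unreached, use highest concentration. GI50: concentration for 50% inhibition of growth. The concentration for full growth arrest is given as TGI.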

Experiments:
Assay in all cases: DTP human tumour cell line panel, 48 h
[1] = test system: HCT-15 colon
[2] = test system: MOLT-4 leukemia
[3] = test system: COLO 205 colon
[4] = test system: OVCAR-5 ovarian
[5] = test system: A498 renal
[6] = test system: SK-OV-3 ovarian
[7] = test system: HOP-92 NSCLC
[8] = test system: SK-MEL-2 melanoma
[9] = test system: OVCAR-4 ovarian
[10] = test system: RPMI-8226 leukemia
[11] = test system: CCRF-CEM leukemia

| SMILES | TGI [1] [µM] | TGI [2] [µM] | TGI [3] [µM] | TGI [4] [µM] | TGI [5] [µM] | TGI [6] [µM] | TGI [7] | TGI [8] | TGI [9] [µM] | TGI [10] [µM] | TGI [11] | GI50 [1] [µM] | GI50 [2] [µM] | GI50 [7] [µM] | GI50 [9] [µM] | GI50 [8] [µM] | GI50 [10] [µM] | GI50 [11] [µM] | GI50 [4] [µM] | GI50 [5] [µM] |
| --- | --- | --- | --- | --- | --- | --- | --- | --- | --- | --- | --- | --- | --- | --- | --- | --- | --- | --- | --- | --- |
| N#Cc1c(C#N)c(SSc2c(C#N)c(C#N)c(N)n2-c2ccccc2)n(-c2ccccc2)c1N | > 24.4 | > 100 | 3.82 | > 62.5 | 44.1 | 37.5 | 3.71 µM | 47.7 µM | – | – | – | – | – | – | – | – | – | – | – | – |
| CN1OC(=O)N(C)C1c1ccccc1 (stereo not given) | > 100 | > 100 | > 100 | > 100 | > 100 | > 100 | > 100 µM | > 100 µM | > 100 | > 100 | > 100 µM | – | – | – | – | – | – | – | – | – |
| CNC(=O)CN1CC(=O)N(C)C(=O)C1 | > 100 | > 100 | > 100 | > 100 | – | > 100 | > 100 µM | > 100 µM | > 100 | > 100 | > 100 µM | – | – | – | – | – | – | – | – | – |
| O=C(O)CCC1(c2ccccc2)NC(=O)NC1=O (stereo not given) | > 100 | – | > 100 | > 100 | > 100 | > 100 | > 100 µM | > 100 µM | > 100 | > 100 | > 100 µM | – | – | – | – | – | – | – | – | – |
| COc1ccc2c(c1)c1cc(OC)ccc1n2CCCCOc1ccc(-c2c3ccccc3c(-c3ccc(OCCCCn4c5ccc(OC)cc5c5cc(OC)ccc54)cc3)c3ccccc23)cc1 | > 100 | > 100 | > 100 | > 100 | – | > 100 | > 100 µM | > 100 µM | > 100 | – | > 100 µM | – | – | – | – | – | – | – | – | – |
| CC(=O)Oc1c(OC(C)=O)c(-c2ccc(O)c(O)c2)c(O)c(O)c1-c1ccc(O)cc1 | > 100 | > 100 | > 100 | > 100 | > 100 | > 100 | > 100 µM and 96.6 µM | > 100 µM and 92 µM | > 100 | > 100 | 67.8 µM and > 100 µM | 76.3 | 53.6 | 60.8 | 59 | 56.5 | 20 | 24.5 | – | – |
| Nc1ccn(C2OC(COP(=O)(O)Oc3ccccc3)C(O)C2O)c(=O)n1 (stereo not given) | > 100 | > 100 | > 100 | > 100 | > 100 | > 100 | > 100 µM | > 100 µM | > 100 | > 100 | > 100 µM | – | – | – | – | – | – | – | – | – |
| COc1ccc(NC2=NCCO2)c2ccccc12 | > 10 | > 10 | > 10 | > 10 | > 10 | > 10 | – | > 10 µM | > 10 | > 10 | > 10 µM | – | – | – | – | – | – | – | – | – |
| Cc1nc(-c2nc([N+](=O)[O-])c([N+](=O)[O-])[nH]2)cs1 | – | > 100 | > 100 | > 100 | > 100 | > 100 | > 100 µM | > 100 µM | > 100 | > 100 | > 100 µM | – | – | – | – | – | – | – | – | – |
| CCN1/C(=C/C(C)=C/c2sc3ccccc3[n+]2CC)Sc2ccccc21 | – | 1.15 | – | 1.73 | 1.82 | 0.375 | 0.338 µM | 1.1 µM | 1.62 | 4.48 | 0.166 µM | – | – | – | – | – | – | – | – | – |
| O/N=C\c1cc(O)c(O)c(/C=N/O)c1 | > 100 | > 100 | > 100 | > 100 | > 100 | > 100 | > 100 µM | > 100 µM | > 100 | > 100 | > 100 µM | – | – | – | – | – | – | – | – | – |
| Cc1ccc2[nH]c3c(C)c4ccncc4c(C)c3c2c1 | 2.22 | 1.95 | 2.23 | 2.81 | 2.91 | 4.38 | 3.09 µM | 2.63 µM | 2.56 | 4.88 | 3.74 µM | – | – | – | – | – | – | – | – | – |
| O=C(CCN1CCCC1)Nc1ccc2c(NCCCc3ccccc3)c3ccccc3nc2c1 | 10.5 | – | – | 2.4 | 3.14 | – | 2.24 µM | 3.24 µM | 2.26 | 3.63 | 3.03 µM | 2.62 | – | 0.875 | 0.812 | 1.69 | 0.611 | 0.562 | 1.12 | 1.31 |
| COc1cc2c(cc1OC)CCN=C2 | > 100 | > 100 | > 100 | > 100 | > 100 | > 100 | > 100 µM | > 100 µM | > 100 | > 100 | > 100 µM | – | – | – | – | – | – | – | – | – |
